Data: the NIST ThermoML archive (doi:10.1021/je6005423)
Numbers after ± are expanded uncertainties.

Key:
[1] = Molar enthalpy of transition or fusion; conditions: Crystal
[2] = molar heat capacity at constant pressure; conditions: 101.33 kPa
[3] = Crystal

CN(C)c1ccncc1 [4-(dimethylamino)pyridine]
Conditions | Molar enthalpy of transition or fusion, Adiabatic calorimetry [kJ/mol] | Molar enthalpy of transition or fusion, DSC [kJ/mol] | Normal melting temperature, Adiabatic calorimetry [°C] | Normal melting temperature, DTA [°C]
[1] | 21.6 ± 0.29 | 21.6 ± 0.64 | – | –
[3] | – | – | 113.94 ± 0.039 | 114.0 ± 0.5

[2], Crystal
Conditions | molar heat capacity at constant pressure [J/K/mol]
80.03 K | 64.47 ± 1.3
83.52 K | 66.81 ± 1.3
86.44 K | 69.05 ± 1.4
89.41 K | 71.03 ± 1.4
92.44 K | 72.95 ± 1.5
95.51 K | 74.9 ± 1.5
98.51 K | 76.86 ± 1.6
101.43 K | 78.68 ± 1.6
104.42 K | 80.51 ± 1.6
107.48 K | 82.3 ± 1.6
110.47 K | 83.92 ± 1.7
113.41 K | 85.67 ± 1.7
116.41 K | 87.31 ± 1.7
119.47 K | 89.01 ± 1.7
122.49 K | 90.57 ± 1.7
125.46 K | 92.11 ± 1.8
128.49 K | 93.69 ± 1.8
131.59 K | 95.38 ± 1.8
134.65 K | 96.78 ± 1.8
137.66 K | 98.3 ± 1.8
140.65 K | 99.76 ± 1.9
143.69 K | 101.22 ± 1.9
146.8 K | 102.9 ± 1.9
149.88 K | 104.47 ± 1.9
152.93 K | 105.97 ± 1.9
155.94 K | 107.42 ± 2
158.93 K | 108.62 ± 2
161.98 K | 109.91 ± 2
165.1 K | 111.54 ± 2
168.19 K | 113.06 ± 2
171.25 K | 114.49 ± 2
174.28 K | 115.97 ± 2.1
177.29 K | 117.2 ± 2.1
180.27 K | 118.57 ± 2.1
183.32 K | 120.19 ± 2.1
186.44 K | 121.88 ± 2.1
189.53 K | 123.23 ± 2.1
192.6 K | 124.43 ± 2.2
195.65 K | 125.95 ± 2.2
198.67 K | 127.3 ± 2.2
201.68 K | 128.65 ± 2.2
204.66 K | 130 ± 2.2
207.72 K | 131.46 ± 2.2
210.84 K | 133.09 ± 2.3
213.94 K | 134.61 ± 2.3
217.02 K | 135.82 ± 2.3
220.08 K | 139.06 ± 2.3
223.12 K | 141.26 ± 2.4
226.12 K | 143.32 ± 2.4
229.09 K | 145.3 ± 2.4
232.06 K | 146.84 ± 2.4
235.11 K | 149.01 ± 2.5
238.15 K | 150.96 ± 2.5
241.18 K | 152.05 ± 2.5
244.19 K | 153.79 ± 2.5
247.18 K | 155.15 ± 2.5
250.16 K | 156.56 ± 2.6
253.13 K | 157.38 ± 2.6
256.16 K | 158.57 ± 2.6
259.24 K | 159.8 ± 2.6
262.29 K | 161.74 ± 2.6
265.4 K | 163.21 ± 2.6
268.51 K | 165.52 ± 2.7
271.55 K | 167.5 ± 2.7
274.51 K | 168.7 ± 2.7
277.42 K | 169.84 ± 2.7
280.39 K | 171.69 ± 2.7
283.34 K | 173.55 ± 2.8
286.27 K | 175.43 ± 2.8
289.25 K | 177.99 ± 2.8
292.28 K | 179.13 ± 2.8
295.28 K | 180.15 ± 2.9
298.29 K | 181.32 ± 2.9
301.34 K | 183.53 ± 2.9
304.44 K | 184.83 ± 2.9
307.47 K | 185.41 ± 2.9
310.42 K | 187.12 ± 2.9
313.4 K | 188.44 ± 3
316.42 K | 189.79 ± 3
319.4 K | 191.08 ± 3
322.4 K | 192.54 ± 3
325.41 K | 193.75 ± 3
328.42 K | 194.7 ± 3
331.5 K | 195.13 ± 3
334.53 K | 196.95 ± 3.1
337.56 K | 198.33 ± 3.1
340.67 K | 200.84 ± 3.1
342.97 K | 199.88 ± 3.1
343.66 K | 201.99 ± 3.1
343.86 K | 200.32 ± 3.1
345.56 K | 201.09 ± 3.1
346.45 K | 202.23 ± 3.1
346.7 K | 203.24 ± 3.1
348.77 K | 203.52 ± 3.1
349.62 K | 204.76 ± 3.2
349.67 K | 205.23 ± 3.2
351.86 K | 205.79 ± 3.2
352.63 K | 206.7 ± 3.2
352.69 K | 207.19 ± 3.2
354.94 K | 207.38 ± 3.2
355.72 K | 208.46 ± 3.2
355.82 K | 209.44 ± 3.2
358.07 K | 209.19 ± 3.2
358.46 K | 210.78 ± 3.2
359.14 K | 211.21 ± 3.2
361.26 K | 211.54 ± 3.2
361.64 K | 213.95 ± 3.3
362.4 K | 212.78 ± 3.3
364.46 K | 214.96 ± 3.3
364.97 K | 216.45 ± 3.3
365.52 K | 215.57 ± 3.3
367.64 K | 216.47 ± 3.3
368.27 K | 219.21 ± 3.3
368.63 K | 217.48 ± 3.3
370.81 K | 219.17 ± 3.3
371.06 K | 221.32 ± 3.4
371.59 K | 220.81 ± 3.4
373.98 K | 222.94 ± 3.4
374.28 K | 223.05 ± 3.4
374.54 K | 223.68 ± 3.4
377.12 K | 225.02 ± 3.4
377.36 K | 225 ± 3.4
377.66 K | 225.68 ± 3.4
380.18 K | 228.35 ± 3.5
380.23 K | 226.87 ± 3.4
380.77 K | 227.73 ± 3.4
383.33 K | 231.81 ± 3.5

[2], Liquid, Small (less than 1 g) adiabatic calorimetry
Conditions | molar heat capacity at constant pressure [J/K/mol]
388.4 K | 231.37 ± 1.6
389.73 K | 233.89 ± 1.6
389.99 K | 232.72 ± 1.6
390.88 K | 233.99 ± 1.6
392.95 K | 234.74 ± 1.6
393.17 K | 234.28 ± 1.6
393.33 K | 235.41 ± 1.6
395.77 K | 236.28 ± 1.6
396.07 K | 235.35 ± 1.6
396.35 K | 235.97 ± 1.6
398.22 K | 237.66 ± 1.6
399.18 K | 236.11 ± 1.6
399.52 K | 236.69 ± 1.6
402.29 K | 237.05 ± 1.6
402.68 K | 237.16 ± 1.6
